Biological target: T1, human recombinant P2X7 receptors (Homo sapiens, UniProt Q99572)
T1 construct: expressed in transfected cells
T1 sequence (Q99572 1-595): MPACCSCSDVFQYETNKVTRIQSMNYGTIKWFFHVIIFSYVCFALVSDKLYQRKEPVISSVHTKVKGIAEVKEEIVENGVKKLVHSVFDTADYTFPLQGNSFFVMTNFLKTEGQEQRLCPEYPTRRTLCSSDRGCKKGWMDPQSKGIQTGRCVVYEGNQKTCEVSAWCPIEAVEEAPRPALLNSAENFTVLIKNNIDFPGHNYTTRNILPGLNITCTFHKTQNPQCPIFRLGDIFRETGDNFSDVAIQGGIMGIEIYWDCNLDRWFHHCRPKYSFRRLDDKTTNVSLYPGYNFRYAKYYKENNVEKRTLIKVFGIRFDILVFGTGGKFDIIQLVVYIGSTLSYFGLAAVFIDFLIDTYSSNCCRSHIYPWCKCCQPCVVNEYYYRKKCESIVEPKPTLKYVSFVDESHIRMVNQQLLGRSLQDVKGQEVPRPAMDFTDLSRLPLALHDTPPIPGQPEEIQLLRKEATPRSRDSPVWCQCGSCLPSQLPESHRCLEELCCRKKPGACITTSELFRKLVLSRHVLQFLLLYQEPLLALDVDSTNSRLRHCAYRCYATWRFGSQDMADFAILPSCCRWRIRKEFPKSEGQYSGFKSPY
Assay: Ethidium Accumulation Assay 1 (HEK293 cells, ATP-induced ethidium uptake)
Format: cell-based
Details: HEK293 cells expressing human P2X7; 1 mM ATP; sometimes mean of more than one measurement; read-out: Assay 1 (antagonist pIC50 for blocking ATP responses) (converted)
Description: Eithidium Accumulation Assay 1
Studies were performed using NaCl assay buffer of the following composition: 140 mM NaCl, 10 mM HEPES [4-(2-hydroxyethyl)-1-piperazine-1-ethanesulfonic acid], 5 mM N-methyl-D-glucamine, 5.6 mM KCl, 10 mM D-glucose, 0.5 mM CaCl2 (pH 7.4).
Human Embryonic Kidney (HEK) 293 cells, stably expressing human recombinant P2X7 receptors, were grown in poly-D-lysine pretreated 96 well plates for 18-24 hours.
The cells were washed twice with 350 μl of the assay buffer, before addition of 50 μl of the assay buffer containing the putative P2X7 receptor antagonist compound. (A small amount of dimethyl sulfoxide, for initially dissolving the compound, is optionally used and present in this 50 μl test compound sample.) The cells were then incubated at room temperature (19-21° C.) for 30 min before addition of ATP and ethidium (100 μM final assay concentration). The ATP concentration was chosen to be close to the EC80 for the receptor type and was 1 mM for studies on the human P2X7 receptor. Incubations were continued for 8 or 16 min and were terminated by addition of 25 μl of 1.3M sucrose containing 4 mM of the P2X7 receptor antagonist Reactive Black 5 (Aldrich). […] Antagonist pIC50 values for blocking ATP responses were determined using iterative curve fitting techniques.

IC50 [nM] | Structure (SMILES)
< 10 | O=C(c1ccc(F)cc1Cl)N1CCn2c(nnc2-c2cnccn2)C1 [Example 85, 7-[(2-chloro-4-fluorophenyl)carbonyl]-3-(2-pyrazinyl)-5,6,7,8-tetrahydro[1,2,4]triazolo[4,3-a]pyrazine]
< 100 | Cc1cc(-c2nnc3n2CCN(C(=O)c2cccc(Cl)c2Cl)C3)no1 [Example 49, 7-[(2,3-dichlorophenyl)carbonyl]-3-(5-methyl-3-isoxazolyl)-5,6,7,8-tetrahydro[1,2,4]triazolo [4,3-a]pyrazine]
< 10 | O=C(c1cccc(C(F)(F)F)c1Cl)N1CCn2c(nnc2-c2ncc(F)cc2F)C1 [Example 83, 7-{[2-chloro-3-(trifluoromethyl)phenyl]carbonyl}-3-(3,5-difluoro-2-pyridinyl)-5,6,7,8-tetrahydro[1,2,4]triazolo [4,3-a]pyrazine]
< 10 | O=C(c1ccc(Cl)cc1Cl)N1CCn2c(nnc2-c2cscn2)C1 [Example 97, 7-[(2,4-dichlorophenyl)carbonyl]-3-(1,3-thiazol-4-yl)-5,6,7,8-tetrahydro[1,2,4]triazolo [4,3-a]pyrazine]
< 100 | Cn1nccc1-c1nnc2n1CCN(C(=O)c1cccc(Cl)c1Cl)C2 [Example 81, 7-[(2,3-dichlorophenyl)carbonyl]-3-(1-methyl-1H-pyrazol-5-yl)-5,6,7,8-tetrahydro[1,2,4]triazolo [4,3-]pyrazine]
< 501 | O=C(c1ccc(F)cc1Cl)N1CCn2c(nnc2-c2cccc(F)n2)C1 [Example 41, 7-[(2-chloro-4-fluorophenyl)carbonyl]-3-(6-fluoro-2-pyridinyl)-5,6,7,8-tetrahydro[1,2,4]triazolo [4,3-a]pyrazine]
< 501 | O=C(c1ccccc1Cl)N1CCn2c(nnc2-c2ccncn2)C1 [Example 116, 7-[(2-chlorophenyl)carbonyl]-3-(4-pyrimidinyl)-5,6,7,8-tetrahydro[1,2,4]triazolo[4,3-a]pyrazine]
< 10 | O=C(c1cccc(Cl)c1Cl)N1CCn2c(nnc2-c2ccc[nH]2)C1 [Example 64, 7-[(2,3-dichlorophenyl)carbonyl]-3-(1H-pyrrol-2-yl)-5,6,7,8-tetrahydro[1,2,4]triazolo [4,3-a]pyrazine]
< 10 | O=C(c1ccccc1Cl)N1CCn2c(nnc2-c2ccco2)C1 [Example 117, 7-[(2-chlorophenyl)carbonyl]-3-(2-furanyl)-5,6,7,8-tetrahydro[1,2,4]triazolo[4,3-a]pyrazine]
< 100 | O=C(c1ccccc1C(F)(F)F)N1CCn2c(nnc2-c2ccccn2)C1 [Example 122, 3-(2-pyridinyl)-7-{[2-(trifluoromethyl)phenyl]carbonyl}-5,6,7,8-tetrahydro[1,2,4]triazolo[4,3-a]pyrazine]
< 100 | O=C(c1ccccc1Cl)N1CCn2c(nnc2-c2ccccn2)C1 [Example 75, 7-[(2-chlorophenyl)carbonyl]-3-(2-pyridinyl)-5,6,7,8-tetrahydro[1,2,4]triazolo [4,3-a]pyrazine]
< 10 | O=C(c1cccc(Cl)c1Cl)N1CCn2c(nnc2-c2ccc(F)cc2)C1 [Example 99, 7-[(2,3-dichlorophenyl)carbonyl]-3-(4-fluorophenyl)-5,6,7,8-tetrahydro[1,2,4]triazolo [4,3-a]pyrazine]
< 100 | O=C(c1cccc(Cl)c1Cl)N1CCn2c(Br)nnc2C1 [Example 6, 3-bromo-7-[(2,3-dichlorophenyl)carbonyl]-5,6,7,8-tetrahydro[1,2,4]triazolo [4,3-a]pyrazine]
< 10 | Cn1ccc(-c2nnc3n2CCN(C(=O)c2cccc(Cl)c2Cl)C3)n1 [Example 63, 7-[(2,3-dichlorophenyl)carbonyl]-3-(1-methyl-1H-pyrazol-3-yl)-5,6,7,8-tetrahydro[1,2,4]triazolo [4,3-a]pyrazine]
< 100 | Cc1ccc(-c2nnc3n2CCN(C(=O)c2cccc(Cl)c2Cl)C3)nc1 [Example 60, 7-[(2,3-dichlorophenyl)carbonyl]-3-(5-methyl-2-pyridinyl)-5,6,7,8-tetrahydro[1,2,4]triazolo [4,3-a]pyrazine]
< 501 | O=C(c1c(Cl)cc(Cl)cc1Cl)N1CCn2c(Br)nnc2C1 [Example 8, 3-bromo-7-[(2,4,6-trichlorophenyl)carbonyl]-5,6,7,8-tetrahydro[1,2,4]triazolo [4,3-a]pyrazine]

IC50 [nM] | Structure (SMILES)
< 100 | O=C(c1ccccc1Cl)N1CCn2c(nnc2-c2ccc(F)cn2)C1 [Example 118, 7-[(2-chlorophenyl)carbonyl]-3-(5-fluoro-2-pyridinyl)-5,6,7,8-tetrahydro[1,2,4]triazolo[4,3-a]pyrazine]
< 100 | O=C(c1cccc(C(F)(F)F)c1Cl)N1CCn2c(nnc2C2CCCC2)C1 [Example 139, 7-{[2-chloro-3-(trifluoromethyl)phenyl]carbonyl}-3-cyclopentyl-5,6,7,8-tetrahydro[1,2,4]triazolo[4,3-a]pyrazine]
< 100 | O=C(c1ccc(F)c(C(F)(F)F)c1)N1CCn2c(nnc2-c2cnccn2)C1 [Example 108, 7-{[4-fluoro-3-(trifluoromethyl)phenyl]carbonyl}-3-(2-pyrazinyl)-5,6,7,8-tetrahydro[1,2,4]triazolo [4,3-a]pyrazine]
< 100 | N#Cc1ccccc1C(=O)N1CCn2c(nnc2-c2ccccn2)C1 [Example 87, 2-{[3-(2-pyridinyl)-5,6-dihydro[1,2,4]triazolo[4,3-a]pyrazin-7(8H)-yl]carbonyl}benzonitrile]
< 100 | Cc1ncccc1-c1nnc2n1CCN(C(=O)c1cccc(Cl)c1Cl)C2 [Example 73, 7-[(2,3-dichlorophenyl)carbonyl]-3-(2-methyl-3-pyridinyl)-5,6,7,8-tetrahydro[1,2,4]triazolo [4,3-a]pyrazine]
< 10 | O=C(c1cccc(C(F)(F)F)c1Cl)N1CCn2c(nnc2-c2cscn2)C1 [Example 42, 7-{[2-chloro-3-(trifluoromethyl)phenyl]carbonyl}-3-(1,3-thiazol-4-yl)-5,6,7,8-tetrahydro[1,2,4]triazolo[4,3-a]pyrazine]
< 100 | O=C(c1ccc(F)cc1Cl)N1CCn2c(nnc2-c2cccc(F)c2)C1 [Example 123, 7-[(2-chloro-4-fluorophenyl)carbonyl]-3-(3-fluorophenyl)-5,6,7,8-tetrahydro[1,2,4]triazolo[4,3-a]pyrazine]
< 100 | O=C(c1cccc(F)c1F)N1CCn2c(nnc2-c2ccccn2)C1 [Example 88, 7-[(2,3-difluorophenyl)carbonyl]-3-(2-pyridinyl)-5,6,7,8-tetrahydro[1,2,4]triazolo [4,3-a]pyrazine]
< 10 | Cc1cccnc1-c1nnc2n1CCN(C(=O)c1cccc(C(F)(F)F)c1Cl)C2 [Example 28, 7-{[2-chloro-3-(trifluoromethyl)phenyl]carbonyl}-3-(3-methyl-2-pyridinyl)-5,6,7,8-tetrahydro[1,2,4]triazolo [4,3-a]pyrazine]
< 10 | O=C(c1cccc(C(F)(F)F)c1F)N1CCn2c(nnc2-c2ccccn2)C1 [Example 91, 7-{[2-fluoro-3-(trifluoromethyl)phenyl]carbonyl}-3-(2-pyridinyl)-5,6,7,8-tetrahydro[1,2,4]triazolo [4,3-a]pyrazine]
< 100 | Cn1cccc1-c1nnc2n1CCN(C(=O)c1ccc(F)cc1Cl)C2 [Example 82, -[(2-chloro-4-fluorophenyl)carbonyl]-3-(1-methyl-1H-pyrrol-2-yl)-5,6,7,8-tetrahydro[1,2,4]triazolo [4,3-a]pyrazine]
< 100 | O=C(c1ccccc1Cl)N1CCn2c(nnc2-c2cnccn2)C1 [Example 120, 7-[(2-chlorophenyl)carbonyl]-3-(2-pyrazinyl)-5,6,7,8-tetrahydro[1,2,4]triazolo[4,3-a]pyrazine]
< 100 | O=C(c1ccccc1Cl)N1CCn2c(nnc2-c2ncccc2F)C1 [Example 121, 7-[(2-chlorophenyl)carbonyl]-3-(3-fluoro-2-pyridinyl)-5,6,7,8-tetrahydro[1,2,4]triazolo[4,3-a]pyrazine]
< 100 | O=C(c1cccc(C(F)(F)F)c1Cl)N1CCn2c(nnc2C2CC2)C1 [Example 133, 7-{[2-chloro-3-(trifluoromethyl)phenyl]carbonyl}-3-cyclopropyl-5,6,7,8-tetrahydro[1,2,4]triazolo[4,3-a]pyrazine]
< 501 | Cc1ncccc1-c1nnc2n1CCN(C(=O)c1ccc(F)cc1Cl)C2 [Example 74, 7-[(2-chloro-4-fluorophenyl)carbonyl]-3-(2-methyl-3-pyridinyl)-5,6,7,8-tetrahydro[1,2,4]triazolo [4,3-a]pyrazine]
